The record followed here is publication PMC8041284, “Tunable Methacrylamides for Covalent Ligand Directed Release Chemistry” (Journal of the American Chemical Society, 2021).

Molecules are shown by their SMILES.

For this test, the target named is BTK (Homo sapiens, UniProt Q06187). Briefly: biochemical. To be noted: read-out: BTK inhibition (%), 0.75 uM BTK, […] probe 3l, 15 min preincubation.
Chain of BTK (Q06187 402-655 limits assumed): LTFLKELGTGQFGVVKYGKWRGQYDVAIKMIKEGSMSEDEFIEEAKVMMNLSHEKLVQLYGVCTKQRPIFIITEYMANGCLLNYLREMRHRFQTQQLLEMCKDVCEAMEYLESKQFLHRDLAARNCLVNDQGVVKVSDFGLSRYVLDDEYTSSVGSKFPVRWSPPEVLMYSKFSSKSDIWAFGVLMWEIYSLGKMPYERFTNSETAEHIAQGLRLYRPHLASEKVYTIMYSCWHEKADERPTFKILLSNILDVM

By inhibition is commonly meant the change of the read-out against control, counted positive when it falls. `CN1CCN(C2CCN(C(=O)Nc3cc(Oc4ccc(NC(=O)C5(C(=O)Nc6ccc(F)cc6)CC5)c(F)c4)ccn3)CC2)CC1` [PCM-0095502]: the inhibition at 10 µM was determined as 17.2%.

Turning to `NCCCCCNCC12CC3CC(CC(C3)C1)C2` [PCM-0095503], the inhibition at 10 µM was -19.5%.

`Cc1nc(C#Cc2ccnc(Cl)c2)c(C)n1-c1ccc(OC(F)(F)F)cc1` [PCM-0095504]: the inhibition at 10 µM was -55.3%.

For `O=C(Nc1cccc(Cl)c1)c1ccccn1` [PCM-0095506], the inhibition at 10 µM was determined as 5.4%.

In the case of `Cc1ccc(S(=O)(=O)n2c(N)nc3ccccc32)cc1` [PCM-0095508], the inhibition at 10 µM is -3.1%.

For the molecule `O=C(Nc1cc(C(F)(F)F)cc(C(F)(F)F)c1)c1cc(Cl)ccc1O` [PCM-0095509], the inhibition at 10 µM came out at 42.8%.

As to `CN1CCN(c2nc3ccccc3nc2Cl)CC1` [PCM-0095510], the inhibition at 10 µM is -6.2%.

Regarding `COc1ccnc2[nH]cc(C(=O)C(=O)N3CCN(C(=O)c4ccccc4)C[C@H]3C)c12` [PCM-0095512], the inhibition at 10 µM came out at 0.7%.

`C[C@@H]1COC(Nc2ccc3ncnc(Nc4ccc(OCc5nccs5)c(Cl)c4)c3c2)=N1` [PCM-0095513]: the inhibition at 10 µM amounted to 17.2%.

As for `CNC(=O)c1cc(Oc2ccc(NC(=O)Nc3cc(C(C)(C)C)nn3-c3ccc4ncccc4c3)c(F)c2)ccn1` [PCM-0095514], the inhibition at 10 µM came out at 98.6%.

As to `NC1(Cc2ccc(Cl)cc2)CCN(c2ncnc3[nH]ccc23)CC1` [PCM-0095516], the inhibition at 10 µM was 13.8%.

As for `COc1ccc(-c2nc(N3CCOCC3)c3sc(CN(C)c4ncc(C(=O)NO)cn4)cc3n2)cn1` [PCM-0095517], the inhibition at 10 µM is 15.2%.

In the case of `Cc1nc(NC(=O)N2CCC[C@H]2C(N)=O)sc1-c1csc(C(C)(C)C)n1` [PCM-0095518], the inhibition at 10 µM came out at 7.6%.

With `Cc1ccc([C@@H]2O[C@H](CO)[C@@H](O)[C@H](O)[C@H]2O)cc1Cc1ccc(-c2ccc(F)cc2)s1` [PCM-0095519], the inhibition at 10 µM was 7.6%.

With `Cn1cc(-c2ccc3ncc(Cc4ccc5ncccc5c4)n3n2)cn1` [PCM-0095521], the inhibition at 10 µM is -16.6%.

As for `O=c1cc(N2CCOCC2)oc2c(-c3cccc4c3sc3ccccc34)cccc12` [PCM-0095522], the inhibition at 10 µM is -13.6%.

Consider `CCc1cc2c(cc1N1CCC(N3CCOCC3)CC1)C(C)(C)c1[nH]c3cc(C#N)ccc3c1C2=O` [PCM-0095523], for which the inhibition at 10 µM is 11.7%.

As for `Cn1cnc(=N)c2[nH]cnc21` [PCM-0095527], the inhibition at 10 µM was -4.8%.

`COc1ncc(-c2ccc3nccc(-c4ccnnc4)c3c2)cc1NS(=O)(=O)c1ccc(F)cc1F` [PCM-0095528]: the inhibition at 10 µM was -18.6%.

As to `CCc1cnn2c(NCc3ccc[n+]([O-])c3)cc(N3CCCC[C@H]3CCO)nc12` [PCM-0095529], the inhibition at 10 µM was -7.6%.

Consider `CC(C)N(CC[C@H](c1ccccc1)c1cc(CO)ccc1O)C(C)C` [PCM-0095530], for which the inhibition at 10 µM is 3.9%.

Consider `NS(=O)(=O)c1ccc(NC(=O)Nc2ccc(F)cc2)cc1` [PCM-0095531], for which the inhibition at 10 µM is -15.6%.

As to `COc1cc(/C=C/C(=O)N2CCN(CC(=O)N3CCCC3)CC2)cc(OC)c1OC` [PCM-0095532], the inhibition at 10 µM is 0%.

With `COc1cc2ncnc(Nc3ccc(O)c(Br)c3)c2cc1OC` [PCM-0095533], the inhibition at 10 µM was 33.8%.

As to `CCOc1nc2cccc(C(=O)O)c2n1Cc1ccc(-c2ccccc2-c2noc(=O)[nH]2)cc1` [PCM-0095534], the inhibition at 10 µM is -3.1%.

Take `Cn1c(=O)cc(N2CCC[C@@H](N)C2)n(Cc2ccccc2C#N)c1=O` [PCM-0095535]: the inhibition at 10 µM was -11%.

`CCCCCCCCOc1ccccc1C(=O)Nc1ccc(C(=O)OCC[N+](C)(CC)CC)cc1` [PCM-0095536]: the inhibition at 10 µM was -64.6%.

Consider `Nc1nc(N)c2nc(-c3cccc(O)c3)cnc2n1` [PCM-0095537], for which the inhibition at 10 µM was -35.7%.

Turning to `O=C1c2cccc3c2[C@H](CCC3)CN1[C@@H]1CN2CCC1CC2` [PCM-0095539], the inhibition at 10 µM came to 4.3%.

On to `O=C1Nc2ccc(I)cc2/C1=C/c1cc(Br)c(O)c(Br)c1` [PCM-0095540], for which the inhibition at 10 µM came to 52.4%.

For the molecule `CN(C)C(=O)COC(=O)Cc1ccc(OC(=O)c2ccc(N=C(N)N)cc2)cc1` [PCM-0095541], the inhibition at 10 µM is -6.2%.

In the case of `Cc1cncc(CN2CCC(=C3c4ccc(Cl)cc4CCc4cccnc43)CC2)c1` [PCM-0095542], the inhibition at 10 µM was -7.6%.

Consider `COCCCN1CCC(NC(=O)c2cc(Cl)c(N)c3c2OCC3)CC1` [PCM-0095543], for which the inhibition at 10 µM is -16.3%.

Regarding `CC1=C(C(=O)OC(C)C)C(c2cccc([N+](=O)[O-])c2)C(C(=O)OC2CN(C(c3ccccc3)c3ccccc3)C2)=C(N)N1` (stereo not drawn) [PCM-0095544], the inhibition at 10 µM was determined as 70%.

On to `N[C@@H]1CCCCN(c2c(F)cc3c(=O)c(C(=O)O)cn(C4CC4)c3c2Cl)C1` [PCM-0095545], for which the inhibition at 10 µM is -15.3%.

As to `CN1C[C@@H]2C[C@H]1CN2c1cc2c(cc1F)c(=O)c(C(=O)O)cn2C1CC1` [PCM-0095547], the inhibition at 10 µM turned out to be 10.2%.

In the case of `Cc1cccc(C(C)c2cnc[nH]2)c1C` (stereo not drawn) [PCM-0095548], the inhibition at 10 µM is -14.8%.

For `O=C(O)CCCc1ccccc1` [PCM-0095550], the inhibition at 10 µM is -12.4%.

In the case of `Oc1ccc(OC2CCCCO2)cc1` (stereo not drawn) [PCM-0095551], the inhibition at 10 µM came out at 11.7%.

As to `CC(C)(C)/[N+]([O-])=C/c1ccc(S(=O)(=O)O)cc1S(=O)(=O)O` [PCM-0095556], the inhibition at 10 µM is 7.7%.

`Nc1nc(CC(=O)Nc2ccc(CCNC[C@H](O)c3ccccc3)cc2)cs1` [PCM-0095557]: the inhibition at 10 µM turned out to be 3.9%.

Consider `NC[C@H](CC(=O)O)c1ccc(Cl)cc1` [PCM-0095558], for which the inhibition at 10 µM is -12.8%.

Take `Cc1cc(C#N)cc(C)c1Oc1nc(Nc2ccc(C#N)cc2)nc(N)c1Br` [PCM-0095562]: the inhibition at 10 µM turned out to be 36.6%.

Regarding `CC(=O)O[C@]1(C(C)=O)CC[C@H]2[C@@H]3CCC4=CC(=O)CCC4=C3[C@@H](c3ccc(N(C)C)cc3)C[C@@]21C` [PCM-0095563], the inhibition at 10 µM is 38.9%.

As to `CCc1cc2c(cc1CC)CC(NC[C@H](O)c1ccc(O)c3[nH]c(=O)ccc13)C2` [PCM-0095564], the inhibition at 10 µM stood at 19.5%.

Turning to `COc1ccc(CNc2nc(N3CCC[C@H]3CO)ncc2C(=O)NCc2ncccn2)cc1Cl` [PCM-0095565], the inhibition at 10 µM was -63.8%.

For the molecule `O=C(O)c1cccc(-c2noc(-c3ccccc3F)n2)c1` [PCM-0095566], the inhibition at 10 µM was -10%.

As for `NC(=O)c1ccc(N(C(N)=O)c2c(F)cccc2F)nc1-c1ccc(F)cc1F` [PCM-0095567], the inhibition at 10 µM was -32.4%.

For `CC(C)(C)n1nc(-c2ccc(Cl)cc2)c2c(N)ncnc21` [PCM-0095568], the inhibition at 10 µM stood at 47.6%.

As to `CCCCCCCCCCCC1=C(O)C(=O)C=C(O)C1=O` [PCM-0095569], the inhibition at 10 µM came out at 42.5%.

`C[C@H](Nc1ncnc2nc[nH]c12)c1cc2cccc(Cl)c2c(=O)n1-c1ccccc1` [PCM-0095570]: the inhibition at 10 µM is 2.1%.

Turning to `COC1CCN(C(=O)c2cc(Cc3n[nH]c(=O)c4ccccc34)ccc2F)CC1` [PCM-0095571], the inhibition at 10 µM stood at 10%.

For the molecule `C=CC(=O)Nc1ccc2ncnc(Nc3cccc(Br)c3)c2c1` [PCM-0095572], the inhibition at 10 µM came to 106%.

As for `C[C@H]1CCC/C=C/[C@@H]2C[C@H](O)C[C@H]2[C@H](O)/C=C/C(=O)O1` [PCM-0095573], the inhibition at 10 µM was determined as 0.8%.
